Reference: patent US20090221603A1, “HETEROCYCLIC AMIDE DERIVATIVES AS CALCIUM CHANNEL BLOCKERS” (priority 2005, published 2009)
Like-named read-outs stand apart in the source and are kept apart here.

Tests used:
[1] = biological target: T1, human α1G T-type channels (Homo sapiens, UniProt O43497); experiment: T-type calcium channel block, patch clamp in HEK cell lines; type: cell-based; conditions: mainly non-inactivated protocol; HEK cells expressing human α1G; read-out: IC50 @ −80 mV
T1 construct: expressed in transfected cells

[2] = biological target: T2, rat brain N-type calcium channel subunits (α1B+α2δ+β1b cDNA subunits) (Rattus norvegicus, UniProt Q02294); experiment: N-type calcium channel block, whole cell patch clamp in HEK 293 cells; type: cell-based; conditions: holding potential −80 mV to +10 mV
T2 construct: expressed in transfected cells; host or cells: HEK 293 (stably, alternatively transiently, transfected)
Description: A. Transformation of HEK Cells: • N-type calcium channel blocking activity was assayed in human embryonic kidney cells, HEK 293, stably transfected with the rat brain N-type calcium channel subunits (α1B+α2δ+β1b cDNA subunits). Alternatively, N-type calcium channels (α1B+α2δ+β1b cDNA subunits), L-type channels (α1C+α2δ+β1b cDNA subunits) and P/Q-type channels (α1A+α2δ+β1b cDNA subunits) were transiently expressed in HEK 293 cells. Briefly, cells were cultured in Dulbecco's modified eagle medium (DMEM) supplemented with 10% fetal bovine serum, 200 U/ml penicillin and 0.2 mg/ml streptomycin at 37° C. with 5% CO2. At 85% confluency cells were split with 0.25% trypsin/1 mM EDTA and plated at 10% confluency on glass coverslips. At 12 hours the medium was replaced and the cells transiently transfected using a standard calcium phosphate protocol and the appropriate calcium channel cDNA's. Fresh DMEM was supplied and the cells transferred to 28° C./5% CO2. Cells were incubated for 1 to 2 days prior to whole cell recording.
B. Measurement of Inhibition
Whole cell patch clamp experiments were performed using an Axopatch 200B amplifier (Axon Instruments, Burlingame, Calif.) linked to a personal computer equipped with pCLAMP software. The external and internal recording solutions contained, respectively, 5 mM BaCl2, 10 mM MgCl2, 10 mM HEPES, 40 mM TEACl, 10 mM glucose, 87.5 mM CsCl (pH 7.2) and 108 mM CsMS, 4 mM MgCl2, 9 mM EGTA, 9 mM HEPES (pH 7.2). Currents were typically elicited from a holding potential of −80 mV to +10 mV using Clampex software (Axon Instruments). Typically, currents were first elicited with low frequency stimulation (0.067 Hz) and allowed to stabilize prior to application of the compounds. The compounds were then applied during the low frequency pulse trains for two to three minutes to assess tonic block, and subsequently the pulse frequency was increased to 0.2 Hz to assess frequency dependent block. Data were analyzed using Clampfit (Axon Instruments) and SigmaPlot 4.0 (Jandel Scientific).

[3] = tested on: tactile allodynia after L5/L6 spinal nerve ligation; experiment: Spinal nerve ligation model of neuropathic pain, tactile allodynia (von Frey); type: in vivo, rat; conditions: SNL rats; orally in propylene glycol solution, 300 mg/kg
From the text: Spinal nerve ligation (SNL) injury was induced using the procedure of Kim and Chung, (Kim, S. H., et al., Pain (1992) 50:355-363) in male Sprague-Dawley rats (Harlan; Indianapolis, Ind.) weighing 200 to 300 grams. Anesthesia was induced with 2% halothane in O2 at 2 L/min and maintained with 0.5% halothane in O2. After surgical preparation of the rats and exposure of the dorsal vertebral column from L4 to S2, the L5 and L6 spinal nerves were tightly ligated distal to the dorsal root ganglion using 4-0 silk suture. The incision was closed, and the animals were allowed to recover for 5 days. […] Sham control rats underwent the same operation and handling as the experimental animals, but without SNL. The assessment of tactile allodynia consisted of measuring the withdrawal threshold of the paw ipsilateral to the site of nerve injury in response to probing with a series of calibrated von Frey filaments. Each filament was applied perpendicularly to the plantar surface of the ligated paw of rats kept in suspended wire-mesh cages. Measurements were taken before and after administration of drug or vehicle. Withdrawal threshold was determined by sequentially increasing and decreasing the stimulus strength (“up and down” method), analyzed using a Dixon non-parametric test (Chaplan S. R., et al., J Pharmacol Exp Ther (1994) 269:1117-1123), and expressed as the mean withdrawal threshold.

[4] = tested on: T-type over L-type channels; conditions: cited from earlier work
[5] = low frequency stimulation 0.067 Hz (tonic block), read-out: IC50 @ 0.067 Hz
[6] = pulse frequency 0.2 Hz (frequency dependent block), read-out: IC50 @ 0.2 Hz

T1 sequence (O43497 whole entry): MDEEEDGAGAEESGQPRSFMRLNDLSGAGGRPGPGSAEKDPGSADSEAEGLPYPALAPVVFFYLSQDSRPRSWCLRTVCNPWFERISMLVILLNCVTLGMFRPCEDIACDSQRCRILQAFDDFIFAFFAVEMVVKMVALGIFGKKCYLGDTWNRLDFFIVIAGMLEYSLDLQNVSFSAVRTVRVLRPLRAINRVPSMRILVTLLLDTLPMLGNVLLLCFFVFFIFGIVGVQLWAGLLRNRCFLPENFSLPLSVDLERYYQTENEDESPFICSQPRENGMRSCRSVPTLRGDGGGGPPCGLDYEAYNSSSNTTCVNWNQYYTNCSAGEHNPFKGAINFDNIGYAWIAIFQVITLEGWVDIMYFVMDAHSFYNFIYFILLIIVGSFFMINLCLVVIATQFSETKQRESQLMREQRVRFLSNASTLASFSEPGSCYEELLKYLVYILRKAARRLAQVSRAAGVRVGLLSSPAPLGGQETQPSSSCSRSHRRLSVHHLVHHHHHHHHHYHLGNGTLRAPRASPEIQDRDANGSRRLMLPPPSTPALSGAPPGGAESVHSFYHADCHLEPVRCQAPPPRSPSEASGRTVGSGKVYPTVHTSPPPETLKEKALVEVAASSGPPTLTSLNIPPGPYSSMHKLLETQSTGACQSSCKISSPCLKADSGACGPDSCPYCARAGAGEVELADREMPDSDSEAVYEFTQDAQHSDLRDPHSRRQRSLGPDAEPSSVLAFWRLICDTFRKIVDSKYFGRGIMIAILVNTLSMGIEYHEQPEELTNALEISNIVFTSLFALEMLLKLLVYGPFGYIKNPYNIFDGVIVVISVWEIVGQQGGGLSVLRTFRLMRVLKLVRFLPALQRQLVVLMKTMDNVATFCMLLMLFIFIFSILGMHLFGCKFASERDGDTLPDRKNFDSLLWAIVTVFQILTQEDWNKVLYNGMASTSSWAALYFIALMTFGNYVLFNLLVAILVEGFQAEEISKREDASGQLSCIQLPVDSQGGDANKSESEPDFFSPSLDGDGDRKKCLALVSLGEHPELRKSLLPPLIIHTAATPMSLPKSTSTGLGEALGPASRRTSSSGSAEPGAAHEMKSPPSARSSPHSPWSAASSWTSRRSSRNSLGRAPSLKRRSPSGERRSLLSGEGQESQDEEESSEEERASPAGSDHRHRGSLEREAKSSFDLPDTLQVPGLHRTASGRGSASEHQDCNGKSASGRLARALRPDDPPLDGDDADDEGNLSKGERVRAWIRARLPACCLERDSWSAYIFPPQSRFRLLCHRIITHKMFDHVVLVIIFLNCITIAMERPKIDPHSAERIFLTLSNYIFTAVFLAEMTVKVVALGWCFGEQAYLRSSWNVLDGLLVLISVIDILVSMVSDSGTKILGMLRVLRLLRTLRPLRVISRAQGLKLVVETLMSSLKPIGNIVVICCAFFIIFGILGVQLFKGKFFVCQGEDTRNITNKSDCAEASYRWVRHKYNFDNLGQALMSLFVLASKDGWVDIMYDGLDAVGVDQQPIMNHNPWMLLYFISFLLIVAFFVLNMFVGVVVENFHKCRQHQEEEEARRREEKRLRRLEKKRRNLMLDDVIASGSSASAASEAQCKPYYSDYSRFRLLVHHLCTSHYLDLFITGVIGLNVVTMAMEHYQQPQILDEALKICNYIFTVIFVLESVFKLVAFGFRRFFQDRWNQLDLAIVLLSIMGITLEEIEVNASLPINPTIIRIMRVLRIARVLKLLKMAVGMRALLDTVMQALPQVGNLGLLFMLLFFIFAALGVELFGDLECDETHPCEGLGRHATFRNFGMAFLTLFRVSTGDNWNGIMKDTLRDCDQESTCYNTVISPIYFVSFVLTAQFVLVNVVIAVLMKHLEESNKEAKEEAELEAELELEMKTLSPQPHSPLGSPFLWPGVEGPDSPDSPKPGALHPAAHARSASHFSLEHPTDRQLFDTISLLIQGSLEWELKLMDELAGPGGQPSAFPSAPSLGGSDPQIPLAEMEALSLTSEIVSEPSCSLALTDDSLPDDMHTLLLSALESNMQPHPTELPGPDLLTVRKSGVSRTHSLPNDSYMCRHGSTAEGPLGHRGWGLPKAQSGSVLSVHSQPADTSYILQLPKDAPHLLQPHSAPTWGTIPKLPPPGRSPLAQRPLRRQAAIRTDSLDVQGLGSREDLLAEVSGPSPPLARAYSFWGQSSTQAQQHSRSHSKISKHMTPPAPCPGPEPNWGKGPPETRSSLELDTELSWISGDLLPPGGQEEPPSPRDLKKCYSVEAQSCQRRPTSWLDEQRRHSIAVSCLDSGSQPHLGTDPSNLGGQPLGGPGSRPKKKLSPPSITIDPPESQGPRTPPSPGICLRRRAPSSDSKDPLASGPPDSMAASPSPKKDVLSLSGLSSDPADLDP

| SMILES | IC50 [1] [nM] | IC50 [2, 5] [nM] | IC50 [2, 6] [nM] | reversal of allodynia [3] | selectivity for T-type over L-type channels [4] |
| --- | --- | --- | --- | --- | --- |
| O=C(CNC(c1ccccc1)c1ccccc1)N1CCN(C(c2ccccc2)c2ccccc2)C(CO)C1 (centres unmarked) [Compound 49, 2-benzhydrylamino-1-(4-benzhydryl-3-hydroxymethylpiperazin-1-yl)ethanone] | 370 | 490 | 290 | complete reversal of allodynia | – |
| CN(CC(=O)N1CCN(C(c2ccccc2)c2ccccc2)CC1)C(c1ccccc1)c1ccccc1 [Compound 2, 2-benzhydryl(methyl)amino-1-(4-benzhydrylpiperazin-1-yl)ethanone] | 2900 | 520 | 310 | – | – |
| O=C(CNC(c1ccccc1)c1ccccc1)N1CCN(C(c2ccc(F)cc2)c2ccc(F)cc2)CC1 [Compound 29, 2-(benzhydrylamino)-1-(4-(bis(4-fluorophenyl)methyl)piperazin-1-yl)ethanone] | 9690 | 270 | 140 | – | – |
| O=C(COC(c1ccccc1)c1ccccc1)N1CCN(C(c2ccc(F)cc2)c2ccc(F)cc2)CC1 [Compound 46, 2-(benzhydryloxy)-1-(4-(bis(4-fluorophenyl)methyl)piperazin-1-yl)ethanone] | 350 | 920 | 430 | – | – |
| O=C(COc1ccc(Cl)cc1Cl)N1CCN(C(c2ccccc2)c2ccccc2)CC1 [Compound 26, 1-(4-benzhydrylpiperazin-1-yl)-2-(2,4-dichlorophenoxy)ethanone] | 1260 | 250 | 190 | – | – |
| COCC(=O)O[C@]1(CCN(C)CCCc2nc3ccccc3[nH]2)CCc2cc(F)ccc2[C@@H]1C(C)C [Mibefradil] | – | – | – | – | 10-30 fold |
| CN(CC(=O)N1CCN(C(c2ccccc2)c2ccc(F)cc2)CC1)C(c1ccccc1)c1ccccc1 (centres unmarked) [Compound 6, 2-benzhydryl(methyl)amino-1-(4-((4-fluorophenyl)(phenyl)methyl)piperazin-1-yl)ethanone] | 2000 | 170 | 120 | – | – |
| O=C(C[S+]([O-])C(c1ccccc1)c1ccccc1)N1CCN(C(c2ccc(F)cc2)c2ccc(F)cc2)CC1 (centres unmarked) [Compound 48, 2-(benzhydrylsulfinyl)-1-(4-(bis(4-fluorophenyl)methyl)piperazin-1-yl)ethanone] | 310 | 220 | 160 | – | – |
